According to US20040019027A1, “Method of treating cerebrotendinous xanthomatosis” (priority 2002, published 2004):

Experiments:
[1] = biological target: T1, mouse PXR (Mus musculus, UniProt O54915); experiment: GAL-mouse PXR luciferase reporter gene assay in transfected CV-1 cells; type: cell-based; settings: for fold activation of GAL-mouse PXR / activation of GAL-mouse PXR (in words): 10 μM; for activation of GAL-mouse PXR (in words): CV-1 cells, FIG. 3(a), FIG. 8(a)
T1 sequence (O54915 104-431): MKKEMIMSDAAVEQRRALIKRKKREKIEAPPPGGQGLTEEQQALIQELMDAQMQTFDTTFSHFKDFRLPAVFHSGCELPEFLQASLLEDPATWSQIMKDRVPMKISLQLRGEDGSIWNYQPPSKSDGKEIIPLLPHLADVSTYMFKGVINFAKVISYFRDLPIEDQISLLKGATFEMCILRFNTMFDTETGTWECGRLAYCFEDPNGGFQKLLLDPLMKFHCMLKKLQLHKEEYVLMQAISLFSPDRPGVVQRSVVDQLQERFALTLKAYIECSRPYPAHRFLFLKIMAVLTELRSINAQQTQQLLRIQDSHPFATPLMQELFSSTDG
Method: (§1) CV-1 cells were transiently transfected with a GAL-mouse PXR expression vector, a GAL4 reporter construct, and a β-galactosidase vector as an internal control. Where noted, the bile acid transporter NTCP was added to the transfection to promote the transport of membrane-impermeable bile acids. Transfected cells were exposed to the indicated compounds (10 μM each), and fold activation was determined using luciferase and β-galactosidase enzyme activity assays. […] The transfected CV-1 cells were treated with multiple concentrations of each sterol. Error bars in this figure and subsequent figures represent the standard error of the mean (SEM) from representative experiments.
It is questioned whether β-cholestane-3α, 7α, 12α-triol (Triol) levels were elevated in whole liver extracts from CYP27 −/− mice. To show the level of 5β-cholestane-3α, 7α, 12α-triol in mouse liver extract, wild-type or CYP27 −/−mouse liver tissue (0.5 g) was extracted with 7.5 ml of ethyl acetate/methanol (2:1, vol/vol) along with 5β-cholestane-3β,5α,6β-triol (25 μg) as an internal control for extraction efficiency. […] The extraction was repeated three times, and the organic fraction was pooled and evaporated. To remove the vast excess of cholesterol that interferes with subsequent gas chromatography-mass spectroscopy analysis, the evaporated residue was dissolved in 0.5 ml of chloroform/acetone (35:25, vol/vol) and applied to a Bond Elut SI cartridge (Varian, 500 mg). Cholesterol was removed by washing with 6 ml of chloroform/acetone (35:25, vol/vol), and sterols were eluted with 7 ml of chloroform/acetone/methanol (35:25:20, vol/vol/vol). The sterol fraction was evaporated and dissolved in acetonitrile, and a portion was silylated with N,O-bis(trimethylsilyl)-trifluoroacetamide containing 1% trimethylchlorosilane (Pierce). The silylated material was analyzed by using a Shimadzu model GC-17A gas chromatograph with a QP5000 mass spectral detector and a Hewlett-Packard Ultra 2 (cross-linked-siloxane) column. The injector port was kept at 250° C., interface temperature was kept at 280° C., and oven temperature was kept at 50° C. followed by a gradient of 30° C. min^−1 up to 300° C. The electron impact ionization source was at 70 eV. 5β-cholestane-3α, 7α, 12α-triol levels were determined by comparison to a standard curve. For transfection studies, the sterol fraction was dissolved in DMSO and added to the cell-culture media. containing DMEM with 10% delipidated FBS.

[2] = biological target: T2, full-length mouse PXR (Mus musculus, UniProt O54915); experiment: Full-length mouse PXR reporter assay with rat cyp3a regulatory element in CV-1 cells; type: cell-based; settings: 10 μM, FIG. 3(b)
T2 sequence (O54915 1-431): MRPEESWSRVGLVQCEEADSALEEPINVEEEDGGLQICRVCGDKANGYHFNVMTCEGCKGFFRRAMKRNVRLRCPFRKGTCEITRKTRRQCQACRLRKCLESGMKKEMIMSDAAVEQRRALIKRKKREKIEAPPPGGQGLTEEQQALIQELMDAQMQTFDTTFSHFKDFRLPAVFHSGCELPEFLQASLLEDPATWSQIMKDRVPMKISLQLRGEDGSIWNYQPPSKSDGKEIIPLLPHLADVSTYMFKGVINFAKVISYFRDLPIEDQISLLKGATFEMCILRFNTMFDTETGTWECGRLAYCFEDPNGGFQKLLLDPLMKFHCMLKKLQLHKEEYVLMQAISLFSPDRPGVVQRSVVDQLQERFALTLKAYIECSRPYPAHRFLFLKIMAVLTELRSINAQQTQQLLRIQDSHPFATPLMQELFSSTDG
Method: as §1, with “assays. PCN refers to pregnenolone-16α-carbonitrile which is an effective agonist to mouse PXR.” for “assays.”, “experiments. In some cases, the error bars are not visible because they are negligible relative to the scale of the figure” for “experiments.”
To further confirm that 5β-cholestane-3α, 7α, 12α-triol and 5β-cholestan-3α, 7α, 12α, 25-tetrol activate mouse PXR, the effect of these compounds on full-length mouse PXR was examined using a reporter construct containing a regulatory element from the rat cyp3a gene that binds to the DNA binding domain of mouse PXR. Blumberg et al., SXR, a novel steroid and xenobioticsensing nuclear receptor, Gene & Dev. 12: 3195-3205 (1998).

[3] = system: CYP3A4; settings: reported by Furster & Wikvall 1999; read-out: Michaelis constant (Km) as a CYP3A4 substrate; cited from earlier work
[4] = biological target: T3, human PXR ligand binding domain (Homo sapiens, UniProt O75469); experiment: In vitro ligand displacement assay with [3H]SR12813; settings: 37.5 nM [3H]SR12813; 5 μM hyperforin, 30 μM Triol, 30 μM Tetrol; FIG. 4
T3 sequence (O75469 107-434): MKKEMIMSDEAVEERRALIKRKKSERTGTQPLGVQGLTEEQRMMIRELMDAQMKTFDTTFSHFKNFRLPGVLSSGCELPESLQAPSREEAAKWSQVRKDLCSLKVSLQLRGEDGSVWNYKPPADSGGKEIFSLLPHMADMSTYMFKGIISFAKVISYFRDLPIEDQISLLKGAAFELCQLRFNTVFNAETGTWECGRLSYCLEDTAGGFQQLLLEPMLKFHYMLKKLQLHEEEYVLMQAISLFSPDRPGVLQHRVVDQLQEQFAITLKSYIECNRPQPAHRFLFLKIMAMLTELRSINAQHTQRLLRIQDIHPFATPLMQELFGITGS
Method: The amount of [^3H]SR12813 associated with human PXR is expressed in cpm.
To determine whether a molecule or compound interacts directly with a PXR or is a PXR ligand, an in vitro ligand displacement assay is commonly used. […] In the ligand displacement assay, the ligand binding domain of a PXR is synthesized or expressed and purified. A known PXR ligand is radio-labeled and incubated with the purified ligand binding domain of the PXR. A molecule or compound suspected to be a PXR ligand is then added into the incubated mixture. Radioactivity reading is taken using a scintillation counter. If the molecule or compound competes with the known PXR ligand for the ligand binding domain of the PXR, the molecule or compound is expected to displace some of the radio-labeled known PXR agonist and reduce the radioactivity reading. Accordingly, the reduction of radioactivity reading indicates whether the molecule or compound is a PXR ligand and the extent to which the molecule or compound competes with the known PXR ligand.
An in vitro ligand displacement assay was used to determine whether 5β-cholestane-3α, 7α, 12α-triol interacts directly with the ligand binding domain of PXR. Because radiolabeled [^3H]SR12813 are available for human PXR but not mouse PXR, human PXR was used to examine whether 5β-cholestane-3α, 7α, 12α-triol could compete for binding of human PXR to a tritiated SR12813. […]

[5] = system: CYP3A; settings: cited from earlier work
[6] = system: mice; experiment: Tribromoethanol-induced sleep test; type: in vivo, mouse; settings: i.p. 0.35 mg/g
Source text: Wild type and cyp27-null mice received an i.p. injection of tribromoethanol, and their individual sleep times are plotted. Wild type mice are represented by squares and CYP27-null mice (CYP27 −/−) are represented by circles. Wild type male, n=6; cyp27-1-male, n=5; Wild type female, n=6; cyp27-1-female, n=6. **, P<0.01; ***, P<0.001.
Because PXR is a master regulator of small-molecule clearance, continuous activation of PXR in CYP27-null mice should produce a physiologic state of enhanced resistance to endogenous and exogenous toxins. To test this in a physiological setting, mice received an i.p. injection of the anesthetic agent tribromoethanol (0.35 mg/g of body weight). Drug-induced anesthesia was measured until the animals had regained sufficient consciousness to fully right themselves. […] Thus, the tribromoethanol-induced sleep test provides a direct and quantitative measure of hepatic PXR activity in live animals. […] In female mice, the difference was even more significant: 35.8±1.6 min for CYP27-null mice compared with 49.6±2.0 min for WT (P<0.001). […] When 5β-cholestane-3α, 7α, 12α-triol itself is accumulating to pathological levels, the ability of this sterol to activate cyp3a11 (FIG. 5) becomes highly significant as CYP3A establishes an alternate or salvage pathway for the elimination of excess 5β-cholestane-3α, 7α, 12α-triol (FIG. 1). […]

SMILES: C[C@H](CCCC(C)(C)O)[C@H]1CC[C@H]2[C@@H]3[C@H](O)C[C@@H]4C[C@H](O)CC[C@]4(C)[C@H]3C[C@H](O)[C@]12C [5β-cholestane-3α, 7α, 12α, 25-tetrol]
- fold activation of GAL-mouse PXR [1]: 16 fold

SMILES: CC(C)CCC[C@@H](C)[C@H]1CC[C@H]2[C@@H]3[C@H](O)C[C@@H]4C[C@H](O)CC[C@]4(C)[C@H]3C[C@H](O)[C@]12C [5β-cholestane-3α, 7α, 12α-triol]
- activation of full-length mouse PXR (in words) [2]: activated full-length mouse PXR
- EC50 [1]: ≥ 3 µM
- fold activation of GAL-mouse PXR [1]: 31 fold
- Km [3]: 6 µM

SMILES: CC(C)CCC[C@@H](C)[C@H]1CC[C@H]2[C@@H]3C[C@@H](O)[C@@]4(O)C[C@@H](O)CC[C@]4(C)[C@H]3CC[C@]12C [5β-cholestane-3β,5α,6β-triol]
- activation of GAL-mouse PXR (in words) [1]: does not activate mouse PXR

SMILES: CC(CCC[C@@H](C)[C@H]1CC[C@H]2[C@@H]3[C@H](O)C[C@@H]4C[C@H](O)CC[C@]4(C)[C@H]3C[C@H](O)[C@]12C)C(=O)O (stereo partly drawn) [5β-cholestanoic acid-3α,7α,12α-triol]
- displacement of [3H]SR12813 from human PXR (in words) [4]: failed to displace
- activation of GAL-mouse PXR (in words) [1]: failed to activate mouse PXR

SMILES: COc1cc2c(cc1O)CCN[C@]21CS[C@@H]2c3c(OC(C)=O)c(C)c4c(c3[C@H](COC1=O)N1[C@@H]2[C@H]2c3c(cc(C)c(OC)c3O)C[C@@H]([C@@H]1O)N2C)OCO4 [ET-743, Ecteinascidin-743]
- inhibition of the induction of CYP3A by SR12813 (in words) [5]: completely inhibits

SMILES: C[C@H](CCC(=O)O)[C@H]1CC[C@H]2[C@@H]3[C@H](O)C[C@@H]4C[C@H](O)CC[C@]4(C)[C@H]3CC[C@]12C [chenodeoxycholic acid]
- activation of GAL-mouse PXR (in words) [1]: failed to activate mouse PXR

SMILES: OCC(Br)(Br)Br [tribromoethanol]
- time to awakening after tribromoethanol (mean±SEM) ([6]; female CYP27-null mice): 35.8 ± 1.6 min
- time to awakening after tribromoethanol (mean±SEM) ([6]; female WT mice): 49.6 ± 2.0 min
- time to awakening after tribromoethanol (mean±SEM) ([6]; male CYP27-null mice): 30.6 ± 2.9 min
- time to awakening after tribromoethanol (mean±SEM) ([6]; male WT mice): 42.2 ± 1.9 min
